Ten compounds from BindingDB's records for doi:10.1016/0960-894X(96)00221-1 (1996) can be followed below.

The nature of this assay: Compound was evaluated for inhibition of tyrosinase enzyme.
The term IC50 denotes the point on the concentration scale where inhibition reaches its midpoint. A high value points to lower potency. With `CC[C@H](C)[C@H](NC(=O)OCc1cc(=O)c(O)co1)C(=O)O`, 15.3 µM corresponded to half-maximal inhibition (IC50).
The same measure for `CC[C@H](C)[C@H](NC(=O)OCc1cc(=O)c(O)co1)C(=O)OCc1cc(=O)c(O)co1`: 0.7 µM.
In turn, `CC(C)[C@H](NC(=O)OCc1cc(=O)c(O)co1)C(=O)OCc1cc(=O)c(O)co1` [(S)-2-(5-Hydroxy-4-oxo-4H-pyran-2-ylmethoxycarbonylamino)-3-methyl-butyric acid 5-hydroxy-4-oxo-4H-pyran-2-ylmethyl ester] showed an IC50 of 2.39 µM. This IC50 is about 3.4-fold higher than that of the compound before.
In turn, `CC(C)[C@H](NC(=O)OCc1cc(=O)c(O)co1)C(=O)O` [(S)-2-(5-Hydroxy-4-oxo-4H-pyran-2-ylmethoxycarbonylamino)-3-methyl-butyric acid] registered a half-maximal inhibitory concentration (IC50) of 16.7 µM.
`O=C(N[C@@H](Cc1ccccc1)C(=O)OCc1cc(=O)c(O)co1)OCc1cc(=O)c(O)co1` [(S)-2-(5-Hydroxy-4-oxo-4H-pyran-2-ylmethoxycarbonylamino)-3-phenyl-propionic acid 5-hydroxy-4-oxo-4H-pyran-2-ylmethyl ester]: the IC50 was determined as 0.06 µM.
To `O=C(N[C@@H](Cc1ccccc1)C(=O)O)OCc1cc(=O)c(O)co1` [(S)-2-(5-Hydroxy-4-oxo-4H-pyran-2-ylmethoxycarbonylamino)-3-phenyl-propionic acid] belongs 8 µM; to `CC(C)C[C@H](NC(=O)OCc1cc(=O)c(O)co1)C(=O)OCc1cc(=O)c(O)co1` [(S)-2-(5-Hydroxy-4-oxo-4H-pyran-2-ylmethoxycarbonylamino)-4-methyl-pentanoic acid 5-hydroxy-4-oxo-4H-pyran-2-ylmethyl ester], 2 µM.
To `CC(C)C[C@H](NC(=O)OCc1cc(=O)c(O)co1)C(=O)O` [(S)-2-(5-Hydroxy-4-oxo-4H-pyran-2-ylmethoxycarbonylamino)-4-methyl-pentanoic acid] belongs 14.5 µM; to `C[C@H](NC(=O)OCc1cc(=O)c(O)co1)C(=O)OCc1cc(=O)c(O)co1` [(S)-2-(5-Hydroxy-4-oxo-4H-pyran-2-ylmethoxycarbonylamino)-propionic acid 5-hydroxy-4-oxo-4H-pyran-2-ylmethyl ester], 3.03 µM.
`C[C@H](NC(=O)OCc1cc(=O)c(O)co1)C(=O)O` [(S)-2-(5-Hydroxy-4-oxo-4H-pyran-2-ylmethoxycarbonylamino)-propionic acid] registered an IC50 of 23.2 µM.
